{"source": "ChEMBL document CHEMBL4808180", "about": "“Identification of 2,2-Dimethylbutanoic Acid (HST5040), a Clinical Development Candidate for the Treatment of Propionic Acidemia and Methylmalonic Acidemia” (J Med Chem, 2021)", "key": {"[1]": {"experiment": "Tmax in Sprague-Dawley rat at 50 mg/kg, po", "assay_type": "ADME, organism-based", "settings": "in vivo"}, "OATP1B1": {"biological_target": "T1, OATP1B1 (Homo sapiens, UniProt Q9Y6L6)", "T1 sequence (Q9Y6L6 whole entry)": "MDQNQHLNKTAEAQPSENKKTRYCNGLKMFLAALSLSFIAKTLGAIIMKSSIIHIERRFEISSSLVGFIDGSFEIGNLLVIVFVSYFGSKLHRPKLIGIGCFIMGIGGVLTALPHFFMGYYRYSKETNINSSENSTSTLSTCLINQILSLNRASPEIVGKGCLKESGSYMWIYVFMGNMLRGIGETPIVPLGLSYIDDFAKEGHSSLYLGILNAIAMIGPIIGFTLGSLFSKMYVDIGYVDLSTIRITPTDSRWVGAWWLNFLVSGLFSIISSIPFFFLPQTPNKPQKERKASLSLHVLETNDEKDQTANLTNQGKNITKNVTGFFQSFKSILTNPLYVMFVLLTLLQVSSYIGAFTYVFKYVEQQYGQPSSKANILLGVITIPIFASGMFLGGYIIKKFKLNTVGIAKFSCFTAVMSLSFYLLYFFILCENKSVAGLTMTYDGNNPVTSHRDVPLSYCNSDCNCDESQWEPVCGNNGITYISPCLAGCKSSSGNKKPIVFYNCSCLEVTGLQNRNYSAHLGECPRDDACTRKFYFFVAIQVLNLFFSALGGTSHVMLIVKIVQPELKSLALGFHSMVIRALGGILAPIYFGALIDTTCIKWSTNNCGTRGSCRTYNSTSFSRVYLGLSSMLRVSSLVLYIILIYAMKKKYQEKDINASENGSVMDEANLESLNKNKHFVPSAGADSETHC", "experiment": "Inhibition of human OATP1B1 assessed as reduction in OATP1B1- mediated E217betaG transport at 14900 uM relative to control", "settings": "not told, probe E217betaG"}, "[2]": {"experiment": "Drug metabolism in Gottingen minipig plasma assessed as HST5040-glucuronide metabolite formation at 10 mg/kg administered as single dose by LC/MS analysis", "assay_type": "ADME, organism-based, Sus scrofa domesticus", "settings": "pig, in vivo"}, "[3]": {"experiment": "Reduction of propionyl-CoA in human hepatocytes derived from methylmalonic acidemia pretreated for 30 mins followed by 13C-isoleucine addition and measured after 1 hr by MS/MS analysis", "assay_type": "functional, cell-based", "settings": "hepatocyte"}, "[4]": {"experiment": "Reduction of propionyl carnitine in human hepatocytes derived from methylmalonic acidemia patient pretreated for 30 mins followed by 13C-isoleucine addition and measured after 1 hr by MS/MS analysis", "assay_type": "functional, cell-based", "settings": "hepatocyte"}, "[5]": {"experiment": "Reduction of methylmalonyl-CoA in human hepatocytes derived from methylmalonic acidemia at 30 uM pretreated for 30 mins followed by 13C-isoleucine addition and measured after 1 hr by MS/MS analysis relative to control", "assay_type": "functional, Hepatocyte", "parameters": "scale not given: the % may be the effect or the level left", "settings": "time 90 min, 1.5 h"}, "[6]": {"experiment": "Half life in Sprague-Dawley rat at 50 mg/kg, po", "assay_type": "ADME, organism-based", "settings": "in vivo"}, "[7]": {"experiment": "Drug metabolism in Gottingen minipig plasma assessed as HST5040-carnitine metabolite formation at 10 mg/kg administered as single dose by LC/MS analysis", "assay_type": "ADME, organism-based, Sus scrofa domesticus", "settings": "pig, in vivo"}, "[8]": {"experiment": "Reduction of CoASH in human hepatocytes derived from propionic acidemia patient at 30 uM pretreated for 30 mins followed by 13C-isoleucine addition and measured after 1 hr by MS/MS analysis relative to control", "assay_type": "functional, Hepatocyte", "parameters": "scale not given: the % may be the effect or the level left", "settings": "time 90 min, 1.5 h"}, "OAT1": {"biological_target": "T2, OAT1 (Homo sapiens, UniProt Q4U2R8)", "T2 sequence (Q4U2R8 whole entry)": "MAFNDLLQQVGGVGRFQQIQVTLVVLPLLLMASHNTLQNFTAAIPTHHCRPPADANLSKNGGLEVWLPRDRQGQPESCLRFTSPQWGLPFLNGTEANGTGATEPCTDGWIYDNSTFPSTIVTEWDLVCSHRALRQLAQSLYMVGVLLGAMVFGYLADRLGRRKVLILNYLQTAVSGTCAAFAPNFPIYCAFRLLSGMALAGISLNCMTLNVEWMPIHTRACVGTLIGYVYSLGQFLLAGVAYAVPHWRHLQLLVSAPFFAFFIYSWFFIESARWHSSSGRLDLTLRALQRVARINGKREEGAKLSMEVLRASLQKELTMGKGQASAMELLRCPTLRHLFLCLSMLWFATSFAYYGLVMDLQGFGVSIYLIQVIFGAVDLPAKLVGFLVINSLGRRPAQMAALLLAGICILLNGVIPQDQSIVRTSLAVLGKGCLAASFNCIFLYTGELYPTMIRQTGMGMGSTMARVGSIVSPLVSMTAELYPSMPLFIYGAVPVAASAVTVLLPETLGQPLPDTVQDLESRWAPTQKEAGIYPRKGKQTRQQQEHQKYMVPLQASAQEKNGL", "experiment": "Inhibition of human OAT1 assessed as reduction in OAT1-mediated tenofovir transport at 14900 uM relative to control", "settings": "not told, probe tenofovir"}, "[9]": {"experiment": "Clearance in Sprague-Dawley rat at 10 mg/kg, iv", "assay_type": "ADME, organism-based", "settings": "in vivo"}, "[10]": {"experiment": "AUC (0 to infinity) in Sprague-Dawley rat at 10 mg/kg, po", "assay_type": "ADME, organism-based", "parameters": "time infinity, route oral, dose 10 mg/kg", "settings": "in vivo"}, "[11]": {"experiment": "Cmax in Sprague-Dawley rat at 50 mg/kg, po", "assay_type": "ADME, organism-based", "parameters": "route oral, dose 50 mg/kg", "settings": "in vivo"}, "[12]": {"experiment": "Dissociation constant, pKa of the compound", "assay_type": "physicochemical"}, "[13]": {"experiment": "Drug metabolism in minipig assessed as beta-oxidation by measuring phase1 metabolite formation at 10 mg/kg administered single dose using radiolabeled compound", "assay_type": "ADME, organism-based, Sus scrofa domesticus", "settings": "pig, in vivo"}, "[14]": {"experiment": "AUC (0 to infinity) in Gottingen minipig at 10 mg/kg, po using radiolabeled compound by quantitative whole-body autoradiography", "assay_type": "ADME, organism-based, Sus scrofa domesticus", "parameters": "time infinity, route oral, dose 10 mg/kg", "settings": "pig, in vivo"}, "[15]": {"experiment": "Drug metabolism in rat hepatocytes assessed as beta-oxidation by measuring phase1 metabolite formation at 50 uM measured after 4 hrs", "assay_type": "ADME, cell-based, Hepatocyte"}, "[16]": {"experiment": "Reduction of acetyl carnitine in human hepatocytes derived from methylmalonic acidemia patient pretreated for 30 mins followed by 13C-isoleucine addition and measured after 1 hr by MS/MS analysis", "assay_type": "functional, cell-based", "settings": "hepatocyte"}, "[17]": {"experiment": "Drug metabolism in Gottingen minipig urine assessed as HST5040-glycine metabolite formation at 10 mg/kg administered as single dose by LC/MS analysis", "assay_type": "ADME, organism-based, Sus scrofa domesticus", "settings": "pig, in vivo"}, "[18]": {"experiment": "Stability in human hepatocytes assessed as unchanged compound at 50 uM measured after 4 hrs", "assay_type": "ADME, cell-based, Hepatocyte", "settings": "read-out: Stabilty"}, "[19]": {"experiment": "Reduction of propionyl-CoA in human hepatocytes derived from methylmalonic acidemia at 30 uM pretreated for 30 mins followed by 13C-isoleucine addition and measured after 1 hr by MS/MS analysis relative to control", "assay_type": "functional, Hepatocyte", "parameters": "scale not given: the % may be the effect or the level left", "settings": "time 90 min, 1.5 h"}, "Hepatocyte": {"system": "Hepatocyte", "experiment": "Cytotoxicity against rat hepatocytes assessed as reduction in cell viability using radiolabeled compound", "assay_type": "cell-based"}, "[20]": {"experiment": "Reduction of 2-Methylcitric acid in human hepatocytes derived from methylmalonic acidemia patient pretreated for 30 mins followed by 13C-isoleucine addition and measured after 1 hr by MS/MS analysis", "assay_type": "functional, cell-based", "settings": "hepatocyte"}, "[21]": {"experiment": "Induction of toxicity in minipig assessed as increase in number of cells with cytoplasmic vacuoles in renal tubules at >=50 mg/kg/day", "assay_type": "organism-based, Sus scrofa domesticus", "settings": "pig, in vivo"}, "[22]": {"experiment": "Tmax in CD1 mouse at 100 mg/kg, po", "assay_type": "ADME, organism-based", "settings": "in vivo"}, "[23]": {"experiment": "Drug metabolism in human hepatocytes assessed as formation of 2,2-dimethylbutanoic acid-CoA incubated for 1 hrs by MS/MS analysis", "assay_type": "ADME, cell-based", "settings": "Hepatocyte"}, "[24]": {"experiment": "Drug excretion in Gottingen minipig urine at 10 mg/kg, po using radiolabeled compound by quantitative whole-body autoradiography", "assay_type": "ADME, organism-based, Sus scrofa domesticus", "settings": "pig, in vivo, 96 h"}, "[25]": {"experiment": "Solubility in pH 7-buffered water", "assay_type": "physicochemical"}}}
{"smiles": "CCC(C)(C)C(=O)O", "note": "[DIMEBUTIC ACID]", "values": [{"measurement": "Tmax", "setting": "[1]", "result": 20, "unit": "min"}, {"measurement": "inhibition at 14900 µM", "setting": "OATP1B1", "result": 25.9, "unit": "%"}, {"measurement": "Drug metabolism", "setting": "[2]", "result": "Metabolite_Detected"}, {"measurement": "EC50", "setting": "[3]", "result": 2.1, "unit": "µM"}, {"measurement": "EC50", "setting": "[4]", "result": 1.4, "unit": "µM"}, {"measurement": "Activity", "setting": "[5]", "result": -55, "unit": "%"}, {"measurement": "half-life", "setting": "[6]", "result": 196, "unit": "min"}, {"measurement": "Drug metabolism", "setting": "[7]", "result": "Metabolite_Detected"}, {"measurement": "Activity", "setting": "[8]", "result": -31.3, "unit": "%"}, {"measurement": "inhibition at 14900 µM", "setting": "OAT1", "result": 83.2, "unit": "%"}, {"measurement": "clearance", "setting": "[9]", "result": 17.3, "unit": "mL/min/kg"}, {"measurement": "AUC(0-inf)", "setting": "[10]", "result": 5520, "unit": "ng·h/mL"}, {"measurement": "Cmax", "setting": "[11]", "result": 21900, "unit": "ng/mL"}, {"measurement": "pKa", "setting": "[12]", "result": 4.4}, {"measurement": "Drug metabolism", "setting": "[13]", "result": "Metabolite_Notdetected"}, {"measurement": "AUC", "setting": "[14]", "result": 91300, "unit": "ng·h/mL"}, {"measurement": "Drug metabolism", "setting": "[15]", "result": "Metabolite_Notdetected"}, {"measurement": "EC50", "setting": "[16]", "result": 4.3, "unit": "µM"}, {"measurement": "Drug metabolism", "setting": "[17]", "result": "Metabolite_Detected"}, {"measurement": "remaining at 4 h, 50 µM", "setting": "[18]", "result": 88, "unit": "%"}, {"measurement": "Activity", "setting": "[19]", "result": -74.2, "unit": "%"}, {"measurement": "Activity", "setting": "Hepatocyte", "result": "Non-Toxic"}, {"measurement": "EC50", "setting": "[20]", "result": 0.8, "unit": "µM"}, {"measurement": "Activity", "setting": "[21]", "result": "Toxic"}, {"measurement": "Tmax", "setting": "[22]", "result": 30, "unit": "min"}, {"measurement": "EC50", "setting": "[23]", "result": 5.9, "unit": "µM"}, {"measurement": "Drug excretion", "setting": "[24]", "result": 77.4, "unit": "%"}, {"measurement": "solubility", "setting": "[25]", "result": "> 50", "unit": "mg/mL"}]}
